Measurements taken from patent US10829520B2, “Beta-hairpin peptidomimetics” (POLYPHOR AG, priority 2015, dated 2020).
Where a SMILES comes first, the peptide text is derived from it. Bridges are numbered along the chain shown (N, C = ends). Roman numbers before positions name the chains, in order. [ ]: non-standard residue; d: D form. Tle = CC(C)(C)[C@H](N)C(=O)O; dDab = NCC[C@@H](N)C(=O)O; Nle = CCCC[C@H](N)C(=O)O; Orn = NCCC[C@H](N)C(=O)O; Dab = NCC[C@H](N)C(=O)O; dAze = O=C(O)[C@H]1CCN1; Sar = CNCC(=O)O

Legend:
Assay type in all cases: cell-based
[1] = system: human red blood cells (hRBC); assay: Hemolysis of human red blood cells; conditions: red cells of human, 1 h
Procedure: (§1) Lyophilized peptides were weighed on a Microbalance (Mettler MT5) and dissolved in sterile water to a final concentration of 1 mg/mL. Stock solutions were kept at +4° C., light protected.
The peptides were tested for their hemolytic activity against human red blood cells (hRBC). Fresh hRBC were washed three times with phosphate buffered saline (PBS) and centrifuged for 10 min at 2000×g. Compounds (100 μg/mL) were incubated with 20% hRBC (v/v) for 1 h at 37° C. and shaking at 300 rpm. The final erythrocyte concentration was approximately 0.9×10^9 cells/mL. A value of 0% and 100% cell lyses, respectively, was determined by incubation of hRBC in the presence of PBS containing 0.001% acetic acid and 2.5% Triton X-100 in H2O, respectively. The samples were centrifuged, the supernatants were 8-fold diluted in PBS buffer and the optical densities (OD) were measured at 540 nm. The 100% lyses value (OD540H2O) gave an OD540 of approximately 0.5-1.0.
Percent hemolysis was calculated as follows: (OD540peptide/OD540H2O)×100%.

[2] = system: Acinetobacter baumannii DSM 30008; conditions: DSM 30008
Procedure: as §1
(§2) The in vitro antimicrobial activities of the peptides were determined in 96-well plates (Greiner, polystyrene) by the standard CLSI broth microdilution method (Clinical and Laboratory Standards Institute 2014. Performance standards for antimicrobial susceptibility testing, 24th informational supplement. Approved standard CLSI M100-S24; Clinical and Laboratory Standards Institute, Wayne, Pa.). Inocula of the microorganisms were diluted into Mueller-Hinton II (MH-cation adjusted) broth and compared with a 0.5 McFarland standard to give appr. 10^6 colony forming units (CFU)/mL. Aliquots (90 μL) of inoculate were added to 10 μL of MH-II broth+P-80 (Polysorbate 80, 0.002% final concentration, v/v) containing the peptide in serial two-fold dilutions. The following microorganisms were used to determine antibiotic activity of the peptides: Escherichia coli ATCC 25922, Klebsiella pneumoniae SSI #3010^a), Acinetobacter baumannii DSM 30008, Pseudomonas aeruginosa ATCC 27853 and the clinical isolates Escherichia coli 926415^b), Klebsiella pneumoniae 968733^b) and Acinetobacter baumannii 872842^b). Antimicrobial activities of the peptides were expressed as the minimal inhibitory concentration (MIC) in μg/mL at which no visible growth was observed after 18-20 hours of incubation at 35° C. ^a) Obtained from Statens Serum Institut (SSI), Copenhagen, Denmark^b) Obtained from International Health Management Associates, Inc. (IHMA Europe Sàrl), Epalinges, Switzerland

[3] = system: Escherichia coli ATCC 25922; conditions: ATCC 25922
Procedure: as §1, §2

[4] = system: Klebsiella pneumoniae SSI #3010; conditions: SSI #3010
Procedure: as §1, §2

[5] = system: Pseudomonas aeruginosa ATCC 27853; conditions: ATCC 27853
Procedure: as §1, §2

CC(C)C[C@@H]1NC(=O)[C@H](CCCNC(=N)N)NC(=O)[C@@H](CCN)NC(=O)[C@H](C(C)C)NC(=O)[C@@H](NC(=O)[C@H](Cc2ccc(O)cc2)NC(=O)[C@H](CCN)NC(=O)[C@@H](N)Cc2c[nH]c3ccccc23)CSSC[C@@H](C(=O)N[C@@H](Cc2ccc(O)cc2)C(=O)N[C@@H](CCN)C(=O)NCC(=O)N[C@@H](CCN)C(=O)N[C@H](C(=O)N[C@@H](CCN)C(=O)N[C@H]2CCNC(=O)[C@H]([C@@H](C)O)NC(=O)[C@H](CCN)NC(=O)[C@H](CCN)NC(=O)[C@H](CC(C)C)NC(=O)[C@@H](CC(C)C)NC(=O)[C@H](CCN)NC2=O)[C@@H](C)O)NC1=O [Ex. 166] (H-W[Dab]YCV[dDab]RLCY[Dab]G[Dab]T[Dab][Dab][Dab][dL]L[Dab][Dab]T; disulfide 4-9; lactam 16-C)
Hemolysis at 100 μg/mL ([1]; 100 μg/mL): 3%
Acinetobacter baumannii DSM 30008 MIC [2]: 2 µg/mL
Escherichia coli ATCC 25922 MIC [3]: 2 µg/mL
Klebsiella pneumoniae SSI #3010 MIC [4]: 2 µg/mL
Pseudomonas aeruginosa ATCC 27853 MIC [5]: 2 µg/mL

CC(C)C[C@@H]1NC(=O)[C@@H](CC(C)C)NC(=O)[C@H](CCN)NC(=O)[C@@H](NC(=O)[C@H](CCN)NC(=O)[C@@H](NC(=O)[C@H](CCN)NC(=O)CN(C)C(=O)[C@@H]2CSSC[C@H](NC(=O)[C@@H](N)Cc3c[nH]c4ccccc34)C(=O)N[C@@H](C(C)C)C(=O)N[C@@H](C)C(=O)N[C@@H](CO)C(=O)N3CCC[C@@H]3C(=O)N3CCC[C@H]3C(=O)N[C@@H](CC(C)C)C(=O)N[C@@H](CO)C(=O)N[C@@H](Cc3ccc(O)cc3)C(=O)N2)[C@@H](C)O)CCNC(=O)[C@@H](C(C)C)NC(=O)[C@H](CCN)NC(=O)[C@H](CCN)NC1=O [Ex. 180] (H-WCVAS[dP]PLSYC[Sar][Dab]T[Dab][Dab][Dab][dL]L[Dab][Dab][dV]; disulfide 2-11; lactam 16-C)
Hemolysis at 100 μg/mL ([1]; 100 μg/mL): <1%
Acinetobacter baumannii DSM 30008 MIC [2]: 0.25 µg/mL
Escherichia coli ATCC 25922 MIC [3]: 0.125 µg/mL
Klebsiella pneumoniae SSI #3010 MIC [4]: 0.125 µg/mL
Pseudomonas aeruginosa ATCC 27853 MIC [5]: 1 µg/mL

CCCC[C@@H]1NC(=O)[C@@H]2CCCN2C(=O)[C@H]2CCCN2C(=O)[C@H](CO)NC(=O)[C@H](C)NC(=O)[C@H](C(C)(C)C)NC(=O)[C@H](CCN)NC(=O)[C@H](Cc2c[nH]c3ccccc23)NC(=O)[C@H](CCN)NC(=O)[C@@H](CCN)NC(=O)[C@H](CC(=O)N[C@H]2CCNC(=O)[C@H]([C@@H](C)O)NC(=O)[C@H](CCN)NC(=O)[C@H](CCN)NC(=O)[C@H](CC(C)C)NC(=O)[C@@H](Cc3ccccc3)NC(=O)[C@H](CCN)NC2=O)NC(=O)[C@H](CCN)NC(=O)[C@H](Cc2ccc(O)cc2)NC(=O)[C@H](CO)NC1=O [Ex. 64] (I: cyclo([Nle]SY[Dab]D[dDab][Dab]W[Dab][Tle]AS[dP]P) / II: [Dab][Dab][dF]L[Dab][Dab]T; amide I:5-II:N; lactam II:1-II:C)
Hemolysis at 100 μg/mL [1]; 100: <1%
Acinetobacter baumannii DSM 30008 MIC [2]: 1 µg/mL
Escherichia coli ATCC 25922 MIC [3]: 2 µg/mL
Klebsiella pneumoniae SSI #3010 MIC [4]: 2 µg/mL
Pseudomonas aeruginosa ATCC 27853 MIC [5]: 4 µg/mL

CC(C)C[C@@H]1NC(=O)[C@@H](CC(C)C)NC(=O)[C@H](CCN)NC(=O)[C@@H](NC(=O)[C@H](CCN)NC(=O)[C@@H](NC(=O)[C@H](CCN)NC(=O)CC[C@@H]2NC(=O)[C@H](CCN)NC(=O)[C@H](Cc3ccc(O)cc3)NC(=O)[C@H]([C@@H](C)O)NC(=O)[C@H](C(C)C)NC(=O)[C@@H]3CCCN3C(=O)[C@H]3CCN3C(=O)[C@H](CO)NC(=O)[C@H](C)NC(=O)[C@H](C(C)(C)C)NC(=O)[C@H](CCN)NC(=O)[C@H](Cc3c[nH]c4ccccc34)NC(=O)[C@H](CCN)NC(=O)[C@@H](CCN)NC2=O)[C@@H](C)O)CCNC(=O)[C@H]([C@@H](C)O)NC(=O)[C@H](CCN)NC(=O)[C@H](CCN)NC1=O [Ex. 101] (I: cyclo(AS[dAze]PVTY[Dab]E[dDab][Dab]W[Dab][Tle]) / II: [Dab]T[Dab][Dab][Dab][dL]L[Dab][Dab]T; amide I:9-II:N; lactam II:4-II:C)
Hemolysis at 100 μg/mL [1]; 100: 4%
Acinetobacter baumannii DSM 30008 MIC [2]: 2 µg/mL
Escherichia coli ATCC 25922 MIC [3]: 1 µg/mL
Klebsiella pneumoniae SSI #3010 MIC [4]: 1 µg/mL
Pseudomonas aeruginosa ATCC 27853 MIC [5]: 0.25 µg/mL

CC(C)C[C@@H]1NC(=O)[C@@H](CC(C)C)NC(=O)[C@H](CCN)NC(=O)[C@@H](NC(=O)[C@H](CCN)NC(=O)[C@@H](NC(=O)[C@H](CCN)NC(=O)CNC(=O)[C@H](CCN)NC(=O)[C@H](Cc2ccc(O)cc2)NC(=O)[C@@H]2CSSC[C@H](NC(=O)[C@H](Cc3ccc(O)cc3)NC(=O)[C@H](CCN)NC(=O)[C@@H](N)Cc3c[nH]c4ccccc34)C(=O)N[C@@H](CO)C(=O)N3CCC[C@@H]3C(=O)N3CCC[C@H]3C(=O)N[C@@H](CC(C)C)C(=O)N2)[C@@H](C)O)CCNC(=O)[C@H]([C@@H](C)O)NC(=O)[C@H](CCN)NC(=O)[C@H](CCN)NC1=O [Ex. 165] (H-W[Dab]YCS[dP]PLCY[Dab]G[Dab]T[Dab][Dab][Dab][dL]L[Dab][Dab]T; disulfide 4-9; lactam 16-C)
Hemolysis at 100 μg/mL ([1]; 100 μg/mL): 1%
Acinetobacter baumannii DSM 30008 MIC [2]: 2 µg/mL
Escherichia coli ATCC 25922 MIC [3]: 0.5 µg/mL
Klebsiella pneumoniae SSI #3010 MIC [4]: 1 µg/mL
Pseudomonas aeruginosa ATCC 27853 MIC [5]: 1 µg/mL

CCCC[C@@H]1NC(=O)[C@@H]2CCCN2C(=O)[C@H]2CCCN2C(=O)[C@H](CO)NC(=O)[C@H](C)NC(=O)[C@H](C(C)(C)C)NC(=O)[C@H](CCN)NC(=O)[C@H](Cc2c[nH]c3ccccc23)NC(=O)[C@@H](N)CSSC[C@@H](C(=O)N[C@H](CCN)C(=O)N[C@H]2CCNC(=O)[C@H]([C@@H](C)O)NC(=O)[C@H](CCN)NC(=O)[C@H](CCN)NC(=O)[C@H](CC(C)C)NC(=O)[C@@H](CC(C)C)NC(=O)[C@H](CCN)NC2=O)NC(=O)[C@H](CCCN)NC(=O)[C@H](CCN)NC(=O)[C@H](Cc2ccc(O)cc2)NC(=O)[C@H](CO)NC1=O [Ex. 195] (H-CW[Dab][Tle]AS[dP]P[Nle]SY[Dab][Orn]C[dDab][Dab][Dab][dL]L[Dab][Dab]T; disulfide 1-14; lactam 16-C)
Hemolysis at 100 μg/mL ([1]; 100 μg/mL): <1%
Acinetobacter baumannii DSM 30008 MIC [2]: 0.5 µg/mL
Escherichia coli ATCC 25922 MIC [3]: 0.125 µg/mL
Klebsiella pneumoniae SSI #3010 MIC [4]: 0.125 µg/mL
Pseudomonas aeruginosa ATCC 27853 MIC [5]: 1 µg/mL

CCCC[C@@H]1NC(=O)[C@@H]2CCCN2C(=O)[C@H]2CCCN2C(=O)[C@H](CO)NC(=O)[C@H](C)NC(=O)[C@H](C(C)(C)C)NC(=O)[C@@H](NC(=O)[C@@H](N)Cc2c[nH]c3ccccc23)CCNC(=O)C[C@@H](C(=O)N[C@@H](CCCN)C(=O)N[C@@H](CCN)C(=O)N[C@H]2CCNC(=O)[C@H]([C@@H](C)O)NC(=O)[C@H](CCN)NC(=O)[C@H](CCN)NC(=O)[C@H](CC(C)C)NC(=O)[C@@H](Cc3ccccc3)NC(=O)[C@H](CCN)NC2=O)NC(=O)[C@H](Cc2ccc(O)cc2)NC(=O)[C@H](CO)NC1=O [Ex. 190] (H-W[Dab][Tle]AS[dP]P[Nle]SYD[Orn][Dab][Dab][Dab][dF]L[Dab][Dab]T; lactam 2-11, 14-C)
Hemolysis at 100 μg/mL [1]; 100: <1%
Acinetobacter baumannii DSM 30008 MIC [2]: 0.5 µg/mL
Escherichia coli ATCC 25922 MIC [3]: 0.5 µg/mL
Klebsiella pneumoniae SSI #3010 MIC [4]: 0.5 µg/mL
Pseudomonas aeruginosa ATCC 27853 MIC [5]: 1 µg/mL

CC(C)C[C@@H]1NC(=O)[C@@H](CC(C)C)NC(=O)[C@H](CCN)NC(=O)[C@@H](NC(=O)[C@H](CCN)NC(=O)[C@@H](NC(=O)[C@H](CCN)NC(=O)CN(C)C(=O)[C@@H]2CSSC[C@H](NC(=O)[C@@H](N)Cc3c[nH]c4ccccc34)C(=O)N[C@@H](C(C)C)C(=O)N[C@@H](C)C(=O)N[C@@H](CO)C(=O)N3CCC[C@@H]3C(=O)N3CCC[C@H]3C(=O)N[C@@H](CC(C)C)C(=O)N[C@@H](CO)C(=O)N[C@@H](Cc3ccc(O)cc3)C(=O)N2)[C@@H](C)O)CCNC(=O)[C@H](CCCNC(=N)N)NC(=O)[C@H](CCN)NC(=O)[C@H](CCN)NC1=O [Ex. 181] (H-WCVAS[dP]PLSYC[Sar][Dab]T[Dab][Dab][Dab][dL]L[Dab][Dab]R; disulfide 2-11; lactam 16-C)
Hemolysis at 100 μg/mL ([1]; 100 μg/mL): <1%
Acinetobacter baumannii DSM 30008 MIC [2]: 0.125 µg/mL
Escherichia coli ATCC 25922 MIC [3]: 0.0625 µg/mL
Klebsiella pneumoniae SSI #3010 MIC [4]: 0.125 µg/mL
Pseudomonas aeruginosa ATCC 27853 MIC [5]: 0.5 µg/mL
